Consider six compounds from patent publication US9326520B2, “Pest repellent comprising geranylacetone” (The University Court of the University of Aberdeen, priority 2006, dated 2016).

Where “and” joins values, the source holds several entries; their conditions need not be identical. Equal entries are not always repeated. Entries after “also recorded” stand apart in the source; their conditions may differ.

In assay [1] the test system is Aedes aegypti host-seeking female mosquitoes. Briefly: Y-tube olfactometer: response of mosquitoes to hand of attractive volunteer with and without chemical. It counts as in vivo. From the text: FIG. 5. […] (−1=1×10^−1 g μL^−1; −2=1×10^−2 g μL^−1, etc). Back transformed means+95% confidence intervals (calculated for a binomial distribution) from the logistic scale are shown.
A convenient bioassay was established following work by Geier et al. (1999)^17 using a Y-tube olfactometer in which mosquitoes, Ae. aegypti, could “choose” between volatile skin emanations and air alone, the “choice” being expressed as flight activity or relative attraction. Initially, the source of skin emanations was from individual hands of a series of human volunteers.
These compounds (from Sigma Aldrich) were tested individually at different concentrations in the olfactometer against Ae. aegypti. The upwind flight activity, relative attraction and probing activity (feeding) of the mosquitoes to the hand of an attractive volunteer with and without the chemicals was recorded.

The test system of a further assay is Culex quinquefasciatus. Briefly: Laboratory-based repellency test, treated forearm in cage, protective efficacy (PE). As to conditions: for Mean % P.E ± S.E: landings over 3 min. It counts as in vivo. On the procedure:
(§1) The mosquitoes were laboratory-reared using standard conditions at ICIPE, Duduville. 5-7 day old female mosquitoes that had been starved for 18 h but previously fed on 6% glucose solution were used. Eighteen cages (50×50×50 cm) were used with 25 female mosquitoes in each. Six human volunteers with no or little allergic reaction to bites were selected. Test solutions (0.5 ml in acetone) were applied to a volunteer's forearms and the hand was covered with a glove. Acetone alone (0.5 ml) served as a control on the other arm. The control arm was inserted into a cage and the number of landings were recorded over 3 min. The treated arm was then inserted as above. Repellency data was expressed as protective efficacy (PE) and was calculated by using the formula PE=(% control mean−% test mean/% control mean). The data were transformed and subjected to an ANOVA.
(§2) Each compound was tested at concentrations ranging from 0.0001% to 10%. […]

The subject of another assay is Anopheles gambiae. The description is as above. The class given is in vivo. As to conditions: An. gambiae, landings over 3 min. On the procedure: as §1, §2
A further assay relates to C. impunctatus midges. Briefly: Field trial of repellency (WHO protocol), compounds on stockings worn on forearms of volunteers. The following applies: for repellency compared with DEET at 1%: over 1 min, single compounds at 1%. The class given is in vivo, Culicoides impunctatus. Here is the method:
FIG. 6. Repellency of EAG-active human-derived compounds applied to the forearms of volunteers and tested on Culicoides impuctatus midges in the field. a) over 1 minute and b) over 5 minutes.
A field trial was made in the Ormsary estate, Argyllshire, during the summer 2005 in a region with an extremely high natural population of C. impunctatus. […] Compounds were applied to (nylon) stockings and worn on the forearms of volunteers and were tested at three concentrations in ethanol (1%, 0.01% and 0.0001%). All compounds and mixtures were compared against the WHO approved repellent diethyltoluamide (DEET) (1% and 40%).

The next assay deals with Ae. aegypti. As to conditions: H. D. Douglas et al. J. Med. Entomol. 42(4): 647-651 (2005); cited from earlier work.
The mark [2] stands for this setting: hand of attractive volunteer with chemical vs without, data not shown.

Consider `CCCCCCCCC=O` [nonanal], for which, in assay [1] (at only one dose), the “flight activity compared with the untreated hand” value is given as “significantly greater flight activity than the untreated hand”.

In the case of `CC(=O)CCC=C(C)C` [6-methyl-5-hepten-2-one, 6-Methyl-5-hepten-2-one], the “Mean % P.E ± S.E” value with Culex quinquefasciatus (0.0001 % Conc. in acetone) worked out at 8.0%; with Culex quinquefasciatus (0.001 % Conc. in acetone) it was 12.7%; with Culex quinquefasciatus (0.01 % Conc. in acetone), 21.8%; in the assay on Culex quinquefasciatus (0.1 % Conc. in acetone), 30.1%; in the assay with Culex quinquefasciatus (1 % Conc. in acetone), 49.7 ± 2.9%; in the assay with Culex quinquefasciatus (10 % Conc. in acetone), 100.0 ± 0%. The “Mean % P.E ± S.E” value stood at 0.85 ± 3.9% in the assay on Anopheles gambiae (0.0001 % Conc. in acetone); 1.57 ± 11.2% with Anopheles gambiae (0.001 % Conc. in acetone); 19.2 ± 5.5% in the assay with Anopheles gambiae (0.01 % Conc. in acetone); 34.07 ± 6.6% in the assay on Anopheles gambiae (0.1 % Conc. in acetone); 35.73 ± 8.7% with Anopheles gambiae (1 % Conc. in acetone); 74.75 ± 6.1% in the assay on Anopheles gambiae (10 % Conc. in acetone). Besides, the repellency result in the assay with C. impunctatus midges (1 min time, 0.001%) is recorded as “significantly repellent”; in the assay on C. impunctatus midges (1 min time, 0.01%) it was “not repellent”; in the assay with C. impunctatus midges (1 min time, 1%) it was “strongly repellent”; with C. impunctatus midges (over 5 min), “repellent only at 1%”. In addition, the “repellency compared with DEET at 1%” value in the assay with C. impunctatus midges is “more effective than DEET; also recorded: significantly greater than DEET at 1%”.

As for `CCN(CC)C(=O)c1cccc(C)c1` [DEET, diethyltoluamide, reference compound], the “Mean % P.E ± S.E” value with Culex quinquefasciatus (0.001 % Conc. in acetone) was 7.6 ± 1.8%; in the assay on Culex quinquefasciatus (0.01 % Conc. in acetone) it was 12.0 ± 1.7%; in the assay with Culex quinquefasciatus (0.1 % Conc. in acetone), 76.9 ± 5.4%; in the assay on Culex quinquefasciatus (1 % Conc. in acetone), 98.2 ± 1.1%; with Culex quinquefasciatus (10 % Conc. in acetone) it was 100% and 100 ± 0%; in the assay with Anopheles gambiae (0.001 % Conc. in acetone) it was 6.23 ± 1.7%. In addition, the “Mean % P.E ± S.E” value was 20% and 20.65 ± 6.4% in the assay on Anopheles gambiae (0.01 % Conc. in acetone); 83% and 83.78 ± 3.9% in the assay with Anopheles gambiae (0.1 % Conc. in acetone); 100% and 100 ± 0% in the assay with Anopheles gambiae (1 % Conc. in acetone); 100% and 100 ± 0% with Anopheles gambiae (10 % Conc. in acetone).

As for `CC(=O)CCC=C(C)CCC=C(C)C` [geranylacetone, 6,10-dimethyl-5,9-undecadien-2-one], the “probing activity (feeding)” value in assay [1] (setting [2]) was “significantly reduced”. Moreover, in assay [1] (setting [2]), the relative attraction entry is “caused a reduction in relative attraction”. The “Mean % P.E ± S.E” value is on record as 4.8% in the assay on Culex quinquefasciatus (0.0001 % Conc. in acetone); 10% with Culex quinquefasciatus (0.001 % Conc. in acetone); 23.7% in the assay on Culex quinquefasciatus (0.01 % Conc. in acetone); 33.2 ± 4.5% in the assay on Culex quinquefasciatus (0.1 % Conc. in acetone); 84.1 ± 4.2% in the assay on Culex quinquefasciatus (1 % Conc. in acetone); 100 ± 0% in the assay with Culex quinquefasciatus (10 % Conc. in acetone). The “Mean % P.E ± S.E” value worked out at 100% with Culex quinquefasciatus (10 % Conc. in acetone, listed as Geranylacetone); 7.25 ± 9.5% in the assay with Anopheles gambiae (0.001 % Conc. in acetone); 11.17 ± 12.9% in the assay on Anopheles gambiae (0.01 % Conc. in acetone); 30.13 ± 11% in the assay with Anopheles gambiae (0.1 % Conc. in acetone); 76.97 ± 5.9% in the assay on Anopheles gambiae (1 % Conc. in acetone); 100% in the assay on Anopheles gambiae (10 % Conc. in acetone). For the same compound, the “Mean % P.E ± S.E” value in the assay with Anopheles gambiae (10 % Conc. in acetone, listed as geranylacetonedecanal) turned out to be 100 ± 0%. Further, the repellency result with C. impunctatus midges (all concentrations tested (1%, 0.01% and 0.0001% in ethanol)) is recorded as “effective at all concentrations tested”. The “% repellency compared with DEET” value in the assay on C. impunctatus midges (full 5 min testing period, single compound at 1%) is “higher % repellency than DEET; these differences were not significant”. In addition, the “repellency compared with DEET at 1%” value with C. impunctatus midges is “significantly greater than DEET at 1%”.

Regarding `CCCCCCCCCC=O` [decanal], the “ranking of treatments (repellency)” value in the assay on Culex quinquefasciatus was “most effective treatment”.

In the case of `CCCCCCCC=O` [octanal], in the assay with Ae. aegypti, the “repellent for Ae. aegypti (described previously)” value is “described previously as a repellent”.
